Measurements taken from US20240391896A1 (Nantong Jutai Biotech Co., Ltd., priority 2021, published 2024).
Like-named read-outs stand apart in the source and are kept apart here.

Assays:
Human a-SMA = assay: Transformation of fibroblasts into myofibroblasts (anti-fibrosis test), a-SMA; type: cell-based; settings: HFL1 cells, 20 ng/ml TGF-β1, 48 hours, qPCR
Procedure: (§1) (4) Transformation of Fibroblasts into Myofibroblasts (Anti-Fibrosis Test) • I. Main materials
(§2) HFL1 medium: F12K+10% FBS, adherent growth • II. Experimental Setup • 1. Normal group (medium only), model group (induced by 20 ng/ml TGF-β1), test sample group (20 ng/ml TGF-β1+ compound with different final concentration) • 2. 5 compounds, 3 concentration gradients, each gradient 2 repeat wells. • II. Experimental steps • 1. Digesting and counting, 5e^5 cells/well/2 ml, and seeded in 6-well plates. • 2. After adherent, adding TGF-β1 at a final concentration of 20 ng/ml and stimulating for 48 hours. Adding compounds with different final concentrations (0, 5 uM, 20 uM). • 3. Collecting the supernatant, and detecting the amount of col1 and col3 in the supernatant by kit. Lysing the cells with lysate solution, centrifuging, and collecting the supernatant. • 4. Detection of a-SMA and other genes by qPCR ii. Test Results • (1) BCL-9 affinity results are shown in Tables 1.1, 1.2, and 1.3, and the test methods were as described above.

[1] = system: Human COL1 (collagen type I); assay: Transformation of fibroblasts into myofibroblasts (anti-fibrosis test), collagen type I; type: cell-based; settings: HFL1 cells, 20 ng/ml TGF-β1, 48 hours, supernatant
Procedure: as §1, §2

BCL9/β-catenin = target: T1, BCL9/β-catenin (Homo sapiens, UniProt P35222); assay: FP (BCL-9 avidity) fluorescence polarization competition assay with beta-catenin and FAP-Bcl9 tracer; type: binding
T1 sequence (P35222 1-781): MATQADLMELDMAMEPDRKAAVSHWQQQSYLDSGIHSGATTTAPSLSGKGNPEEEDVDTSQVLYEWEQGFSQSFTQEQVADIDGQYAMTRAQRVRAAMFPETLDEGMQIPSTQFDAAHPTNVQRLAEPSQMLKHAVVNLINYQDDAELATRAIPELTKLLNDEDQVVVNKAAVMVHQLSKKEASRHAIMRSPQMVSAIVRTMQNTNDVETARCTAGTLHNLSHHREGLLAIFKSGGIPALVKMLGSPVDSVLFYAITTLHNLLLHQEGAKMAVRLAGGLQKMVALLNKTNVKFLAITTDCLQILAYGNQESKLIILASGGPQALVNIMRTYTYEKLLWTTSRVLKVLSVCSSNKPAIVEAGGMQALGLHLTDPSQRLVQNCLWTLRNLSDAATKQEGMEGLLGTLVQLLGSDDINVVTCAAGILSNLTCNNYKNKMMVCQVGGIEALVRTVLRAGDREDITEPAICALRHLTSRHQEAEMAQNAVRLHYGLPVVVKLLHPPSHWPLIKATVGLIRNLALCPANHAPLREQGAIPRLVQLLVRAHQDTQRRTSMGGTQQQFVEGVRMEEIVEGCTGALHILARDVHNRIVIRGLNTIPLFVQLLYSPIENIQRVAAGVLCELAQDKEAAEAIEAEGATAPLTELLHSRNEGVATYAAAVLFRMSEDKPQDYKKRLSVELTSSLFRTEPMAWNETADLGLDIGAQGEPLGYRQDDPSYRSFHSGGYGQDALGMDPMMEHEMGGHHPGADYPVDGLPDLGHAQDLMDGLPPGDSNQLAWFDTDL
Procedure: Incubating for 2 hours on a horizontal shaker. Then adding 2 nM FAP-Bcl9 tracer to each well, and after incubation for 2H on a horizontal shaker, measuring the […].

Human AXIN2 = assay: qPCR of AXIN2 expression in HCT116 cells; type: cell-based; settings: HCT-116, Table 2, HCT116 cells, AXIN2 vs β-actin, 24 hours
Procedure: Cells were digesting, counting, and plating cells in 24-well plates (flat bottom, clear), with 3×10^5 cells/500 ul DMEM (10% FBS) per well. • 2. Observing the state of cells on the next day, and start dosing after cell attachment is intact
Diluting 514 with DMEM (2% FBS) by gradient dilution with concentrations of 20 μM, 10 μM, 5 μM, 2.5 μM, 1.25 μM, 0.625 μM, 0.3125 μM, 0.15625 μM, 0 μM (equal volume DMSO)
Adding 500 μl of the above different concentrations of 514 to each well, and setting a single well for each concentration gradient except three repeat wells for the 0 μM concentration (double wells for qPCR). • 3. Incubating at 37° C. for 24 hours • 4. Discarding the supernatant, washing once with PBS, and adding trizol at 500/well • 5. RNA extraction (step omitted) • 6. Reverse transcription (step omitted, according to the kit) • 7. qPCR (step omitted, following the kit steps)
• 8. calculation of inhibition rate

HCT116 cells = assay: CCK8 cell viability assay in HCT116 cells; type: cell-based; settings: Homo sapiens, HCT-116; Table 2, HCT116 cells, 24 hours
Procedure: • 1. HCT116 cell plating
Digesting, counting, and plating the cells in 96-well plates (flat bottom, transparent) with 10,000 cells/100 ul DMEM (10% FBS) per well; • 2. Observing the state of cells on the next day, and start dosing after cell attachment is intact; • 3. diluting 514 with DMEM (2% FBS) by gradient dilution with concentrations of 20 μM, 10 μM, 5 μM, 2.5 μM, 1.25 μM, 0.625 μM, 0.3125 μM, 0.15625 μM, 0 μM (equal volume of DMSO); • 4. Adding 100 μl of the above different concentrations of 514 to each well, and making two repeat wells for each concentration gradient; leaving three blank wells (only adding DMEM 2% FBS culture medium without cells). • 5. Culturing at 37° C. for 24 hours; • 6. Adding 10 μl CCK-8 enhanced solution to each well: due to the small amount added of CCK-8 in each well, it may cause errors resulting from the reagent staining on the wall of the well. It is recommended to gently tap the culture plate after adding the reagent to help mixing; • 7. Incubating in the incubator for 0.5-4 hours: the amount of Formazan formed is not the same for different cell types, in most cases, incubation for 1 hour is enough. If the color development is not enough, incubation can be continued to determine optimal conditions. • 8. Measuring the absorbance at 450 nm and 600 nm (excluding the interference of the background color of the reagent and the absorbance value of the well plate itself); • 9. Using OD450 nm-OD600 nm for the final absorbance, and calculating the inhibition rate:
[formula] • As: absorbance of experimental wells (medium containing cells, CCK-8, drug to be tested); • Ac: absorbance of control wells (medium containing cells, CCK-8, and no drug to be tested); • Ab: absorbance of blank wells (medium without cells and drug to be tested, CCK-8). (3) qPCR • 1. HCT116 cell plating

collagen type III = assay: Transformation of fibroblasts into myofibroblasts (anti-fibrosis test), collagen type III; type: cell-based; settings: Homo sapiens, Fibroblast; HFL1 cells, 20 ng/ml TGF-β1, 48 hours, supernatant; read-out: IC50 Human COL1 (collagen type III)
Procedure: as §1, §2

[2] = Table 2, FP (BCL-9 affinity), read-out: FP
[3] = Table 1.3, compounds 15-20, read-out: BCL-9 avidity FP IC50

Row | IC50 (BCL9/β-catenin; Table 1.2, compounds 7-16, read-out: BCL-9 avidity FP IC50) | IC50 (BCL9/β-catenin; [2]) | SMILES | IC50 (Human a-SMA) | IC50 [1] | IC50 (Human AXIN2) | IC50 (HCT116 cells) | IC50 (collagen type III) | IC50 (BCL9/β-catenin; [3])
1 | 3.15 µM | 3.15 µM | CC(C)(Oc1cccc(N2CCC[C@@H](C(=O)N(Cc3ccc(-c4cn[nH]c4)cc3)C3CC3)C2)c1Cl)C(=O)N1CCNCC1 [Compound 7, (3R)-1-(2-chloro-3-{[2-methyl-1-oxo-1-(piperazin-1-yl)propan-2-yl]oxy}phenyl)-N-cyclopropyl-N-{[4-(1H-pyrazol-4-yl)phenyl]methyl}piperidine-3-carboxamide] | 20 to 30 µM | 10 to 20 µM | 1.46 µM | 1.05 µM | 10 to 20 µM | –
2 | – | 10 to 20 µM | CN(c1cccc(N2CCC[C@@H](C(=O)N(Cc3ccc(-c4cn[nH]c4)cc3)C3CC3)C2)c1)C(C)(C)C(=O)N1CCNCC1 [Compound 16, (3R)-N-cyclopropyl-1-(3-{methyl[2-methyl-1-oxo-1-(piperazin-1-yl)propan-2-yl]amino}phenyl)-N-{[4-(1H-pyrazol-4-yl)phenyl]methyl}piperidine-3-carboxamid] | – | – | 10 to 20 µM | 2.79 µM | – | 10 to 20 µM
3 | – | – | CC(C)(Oc1cccc(N2CCC[C@@H](NC(=O)N(Cc3ccc(-c4cn[nH]c4)cc3)C3CC3)C2)c1)C(=O)N1CCNCC1 [Compound 17, 1-cyclopropyl-3-[(3R)-1-(3-{[2-methyl-1-oxo-1-(piperazin-1-yl)propan-2-yl]oxy}phenyl)piperidin-3-yl]-1-{[4-(1H-pyrazol-4-yl)phenyl]methyl}urea] | 5 to 10 µM | 10 to 20 µM | 4.67 µM | 1.84 µM | 20 to 30 µM | –
4 | – | – | CC(C)(Oc1cccc(N2CCC[C@@H](NC(=O)N(Cc3ccc(-c4cn[nH]c4)cc3)C3CC3)C2)c1)C(=O)NCCCN [Compound 19, N-(3-aminopropyl)-2-{3-[(3R)-3-{[cyclopropyl({[4-(1H-pyrazol-4-yl)phenyl]methyl})carbamoyl]amino}piperidin-1-yl]phenoxy}-2-methylpropanamide] | 5 to 20 µM | 5.9 µM | 6.11 µM | 3.26 µM | 5 to 20 µM | –

Row | SMILES | IC50 (BCL9/β-catenin; Table 1.2, compounds 7-16, read-out: BCL-9 avidity FP IC50) | IC50 (BCL9/β-catenin; [2]) | IC50 (Human a-SMA) | IC50 [1] | IC50 (Human AXIN2) | IC50 (HCT116 cells) | IC50 (collagen type III) | IC50 (BCL9/β-catenin; [3])
5 | CC(C)(Oc1cccc(N2CCC[C@@H](NC(=O)N(Cc3ccc(-c4cn[nH]c4)cc3)C3CC3)C2)c1)C(=O)NCCN [Compound 18, N-(2-aminoethyl)-2-{3-[(3R)-3-{[cyclopropyl({[4-(1H-pyrazol-4-yl)phenyl]methyl})carbamoyl]amino}piperidin-1-yl]phenoxy}-2-methylpropanamide] | – | 10 to 20 µM | – | – | 2.54 µM | 3.46 µM | – | 10 to 20 µM
